Measured values published in EP0471756B1, “SACCHARIN DERIVATIVES USEFUL AS PROTEOLYTIC ENZYME INHIBITORS AND PREPARATION THEREOF” (priority 1989, dated 1990).

Biological target: T1, human leukocyte elastase (HLE) (Homo sapiens, UniProt P08246)
T1 sequence (P08246 30-267): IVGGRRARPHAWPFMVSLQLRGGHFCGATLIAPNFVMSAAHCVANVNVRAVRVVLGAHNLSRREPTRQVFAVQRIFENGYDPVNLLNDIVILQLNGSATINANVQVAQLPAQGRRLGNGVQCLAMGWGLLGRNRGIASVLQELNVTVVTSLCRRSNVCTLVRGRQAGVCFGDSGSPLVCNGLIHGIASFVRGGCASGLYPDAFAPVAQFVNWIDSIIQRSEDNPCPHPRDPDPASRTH
Test: Inactivation of human leukocyte elastase: kon measured, Ki* = koff/kon calculated
Format: biochemical
Details: Elastase; Ki* = koff/kon, not a truly reversible inhibition constant
Protocol: Thus, instead of measuring a Ki, a Ki* is calculated which is defined as the ratio of the koff/kon, the rate of reactivation of the enzyme to the rate of inactivation of the enzyme. The values of koff and kon are measured and Ki* is then calculated.
The rate of inactivation, kon, of enzymatic activity was determined for the compounds tested by measuring the enzyme activity of an aliquot of the respective enzyme as a function of time after addition of the test compound. […] The rate of inactivation is then equal to kon =(kobs)/([I]) [formula] where [I] is the concentration of the inhibiting compound.
The reactivation constant, koff, is similarly determined and the inhibition constant, Ki*, is then calculated as Ki * = koff /kon [formula]

| Structure (SMILES) | Ki [nM] |
| --- | --- |
| O=C1c2ccccc2S(=O)(=O)N1CSc1nnnn1C1CCCCC1 [Example 9, 2-(1-cyclohexyl-1H-tetrazol-5-ylthiomethyl)saccharin] | 32 |
| Cn1cnnc1SCN1C(=O)c2ccccc2S1(=O)=O [Example 30AC] | 246 |
| O=C1c2cccc(Cl)c2S(=O)(=O)N1CSc1nnnn1-c1ccccc1 [Example 30AG] | > 1000 |
| CCOc1cccc2c1C(=O)N(CSc1nnnn1-c1ccccc1)S2(=O)=O [Example 30AT] | 3 |
| CC(C)Oc1cccc2c1C(=O)N(CSc1nnnn1-c1ccccc1)S2(=O)=O [Example 30AU] | 17.5 |
| O=C1c2ccccc2S(=O)(=O)N1COc1c(Cl)cccc1Cl [Example 30BB] | > 500 |
| O=C1c2c(-c3ccccc3)cccc2S(=O)(=O)N1CSc1nnnn1-c1ccccc1 [Example 30BC] | 80 |
| O=C1c2ccccc2S(=O)(=O)N1Cn1nnn(-c2ccccc2)c1=O [Example 30BH] | > 10000 |
| O=C1c2ccccc2S(=O)(=O)N1CSc1ncccn1 [Example 30F, 2-(2-pyrimidylthiomethyl)saccharin] | > 85000 |
| CC(=O)Nc1ccc2c(c1)C(=O)N(CSc1nnnn1-c1ccccc1)S2(=O)=O [Example 37, 5-acetylamino-2-(1-phenyl-1H-tetrazol-5-ylthiomethyl)saccharin] | > 90000 |

Same assay, conditions: Elastase; rate of inactivation kon = kobs/[I]; value is kon x 10^-3

| 10^-3 x kon [M^-1 sec^-1] | Structure (SMILES) |
| --- | --- |
| 50.7 | CCc1cccc2c1C(=O)N(CCl)S2(=O)=O [Example 28] |
| 4.2 | O=C1c2ccccc2S(=O)(=O)N1CSc1nc(-c2ccccc2)ns1 [Example 30AF] |
| 0.02 | O=C1c2ccccc2C(=O)N1CN1C(=O)c2ccccc2S1(=O)=O [Example 30BF] |

Same assay, conditions: Elastase; rate of inactivation kon = kobs/[I]; value is kon x 10^-3; read-out: 10^-3 x kon

| Structure (SMILES) | kinact/KI [M⁻¹ s⁻¹] |
| --- | --- |
| O=C1c2c(Cl)cccc2S(=O)(=O)N1CSc1nnnn1-c1ccccc1 [Example 4, 4-chloro-2-(1-phenyl-1H-tetrazol-5-ylthiomethyl) saccharin] | 20000 |
| CCCCCCC(=O)Nc1cccc(-n2nnnc2SCN2C(=O)c3ccccc3S2(=O)=O)c1 [Example 7, 2-[1-(3-heptanamidophenyl)-1H-tetrazol-5-ylthiomethyl]saccharin] | 5200 |
| O=C1c2ccccc2S(=O)(=O)N1CSc1nnnn1C1CCCCC1 [Example 9, 2-(1-cyclohexyl-1H-tetrazol-5-ylthiomethyl)saccharin] | 2500 |
| O=C1c2ccccc2S(=O)(=O)N1COc1ccc([N+](=O)[O-])cc1 [Example 15, 2-(4-nitrophenoxymethyl)saccharin] | 3200 |
| COC(=O)C(Sc1nnnn1-c1ccccc1)N1C(=O)c2ccccc2S1(=O)=O (stereo not drawn) [Example 17, methyl 2-(1-phenyl-1H-tetrazol-5-ylthio)2-(2-saccharinyl)acetate] | 2900 |
| O=C1c2c(Br)cccc2S(=O)(=O)N1CCl [Example 21, 2-chloromethyl-4-bromosaccharin] | 950000 |
| COc1cccc2c1C(=O)N(CCl)S2(=O)=O [Example 22A, 2-chloromethyl-4-methoxysaccharin] | 12400 |
| CCC(C)c1cccc2c1C(=O)N(CCl)S2(=O)=O (stereo not drawn) [Example 22B, 2-chloromethyl-4-sec.-butylsaccharin] | 2400 |
| CCC(CC)c1cccc2c1C(=O)N(CCl)S2(=O)=O [Example 22C, 2-chloromethyl-4-(3-pentyl)saccharin] | 105000 |
| O=C1c2cccc(Cl)c2S(=O)(=O)N1CCl [Example 22D] | 75800 |
| CC(C)c1cccc2c1C(=O)N(CCl)S2(=O)=O [Example 22E] | 4700 |
| COc1ccc2c(c1OC)C(=O)N(CCl)S2(=O)=O [Example 22F] | 20000 |
| COC(=O)c1cccc2c1C(=O)N(CCl)S2(=O)=O [Example 22G] | 3000 |
| CCOc1cccc2c1C(=O)N(CCl)S2(=O)=O [Example 22H] | 25000 |
| O=C1c2ccccc2S(=O)(=O)N1CF [Example 27, 2-fluoromethylsaccharin] | 7500 |
| Cc1ccc(C)c2c1C(=O)N(CCl)S2(=O)=O [Example 29, 2-chloromethyl-4,7-dimethylsaccharin] | 1100 |
| O=C(O)c1cccc(-n2nnn(CN3C(=O)c4ccccc4S3(=O)=O)c2=S)c1 [Example 30-O] | 30 |
| Cc1nnc(SCN2C(=O)c3ccccc3S2(=O)=O)s1 [Example 30AB] | 2800 |
| Cn1cnnc1SCN1C(=O)c2ccccc2S1(=O)=O [Example 30AC] | 190 |
| CSc1nn(CN2C(=O)c3ccccc3S2(=O)=O)c(=S)s1 [Example 30AD] | 7000 |

| Structure (SMILES) | kinact/KI [M⁻¹ s⁻¹] |
| --- | --- |
| O=C1c2ccccc2S(=O)(=O)N1CSc1nnc(S)s1 [Example 30AH, 2-(5-mercapto-1,3,4-thiadiazol-2-ylthiomethyl)saccharin] | 1100 |
| CC(C)c1cccc2c1C(=O)N(Cn1nnn(-c3ccccc3)c1=S)S2(=O)=O [Example 30AJ] | 1800 |
| Cc1nnc(SCN2C(=O)c3c(C(C)C)cccc3S2(=O)=O)s1 [Example 30AM] | 12300 |
| CC(C)c1cccc2c1C(=O)N(CSc1nnnn1C)S2(=O)=O [Example 30AN] | 19000 |
| CCOC(=O)Cn1nnnc1SCN1C(=O)c2ccccc2S1(=O)=O [Example 30AP] | 1300 |
| O=C1c2ccccc2S(=O)(=O)N1CSc1nnnn1CCO [Example 30AQ, 2-[1-(2-hydroxyethyl)-1H-tetrazol-5-ylthiomethyl]saccharin] | 900 |
| COC(=O)c1cn(-c2ccccc2)c(SCN2C(=O)c3ccccc3S2(=O)=O)n1 [Example 30AR] | 300 |
| CN(C)C(=O)Cn1nnnc1SCN1C(=O)c2ccccc2S1(=O)=O [Example 30AS] | 1700 |
| CCOc1cccc2c1C(=O)N(CSc1nnnn1-c1ccccc1)S2(=O)=O [Example 30AT] | 45300 |
| CC(C)Oc1cccc2c1C(=O)N(CSc1nnnn1-c1ccccc1)S2(=O)=O [Example 30AU] | 8900 |
| CCc1cccc2c1C(=O)N(CSc1nnnn1CC(=O)N(C)C)S2(=O)=O [Example 30AV] | 7600 |
| CC(C)c1cccc2c1C(=O)N(CSc1nnnn1CC(=O)N(C)C)S2(=O)=O [Example 30AW] | 30000 |
| CCOc1cccc2c1C(=O)N(CSc1nnnn1CC(=O)N(C)C)S2(=O)=O [Example 30AX] | 7500 |
| O=C1c2c(-c3ccccc3)cccc2S(=O)(=O)N1CSc1nnnn1-c1ccccc1 [Example 30BC] | 5800 |
| O=C1c2ccccc2S(=O)(=O)N1CSc1nc2ccc([N+](=O)[O-])cc2s1 [Example 30BD] | 11700 |
| O=C1c2ccccc2S(=O)(=O)N1CSc1nc2ccc([N+](=O)[O-])cc2o1 [Example 30BE] | 7400 |
| O=C1c2ccccc2S(=O)(=O)N1CSc1nnnn1CCN1CCOCC1 [Example 30BG] | 1700 |
| CC(C)c1cccc2c1C(=O)N(CSc1nnnn1CCN1CCOCC1)S2(=O)=O [Example 30BI] | 39000 |
| Nc1cccc(-n2nnnc2SCN2C(=O)c3ccccc3S2(=O)=O)c1 [Example 30C, 2-[1-(3-aminophenyl)-1H-tetrazol-5-ylthiomethyl]saccharin] | 2500 |
| O=C(O)c1ccc(-n2nnnc2SCN2C(=O)c3ccccc3S2(=O)=O)cc1 [Example 30D] | 800 |

| Structure (SMILES) | kinact/KI [M⁻¹ s⁻¹] |
| --- | --- |
| COC(=O)c1cc(C(=O)OC)cc(-n2nnnc2SCN2C(=O)c3ccccc3S2(=O)=O)c1 [Example 30E] | 7300 |
| O=C1C=Cc2ccc(OCN3C(=O)c4ccccc4S3(=O)=O)c3cccc1c23 [Example 30G] | 9300 |
| O=C1c2ccccc2S(=O)(=O)N1CSc1nncn1-c1ccccc1 [Example 30I] | 450 |
| CCc1cccc2c1C(=O)N(CSc1nnnn1CCN1CCOCC1)S2(=O)=O [Example 30J] | 14000 |
| CCOc1ccc(OCCOCCOC)c2c1C(=O)N(CSc1nnnn1-c1ccccc1)S2(=O)=O [Example 30L] | 6500 |
| COCCOCCOc1ccc(OC)c2c1S(=O)(=O)N(CSc1nnnn1-c1ccccc1)C2=O [Example 30M] | 1000 |
| O=C1c2ccccc2S(=O)(=O)N1CSc1nnc2ccccn12 [Example 30N] | 250 |
| O=C1c2ccccc2S(=O)(=O)N1CSc1nnnn1-c1cccnc1 [Example 30Q] | 1380 |
| O=C1c2ccccc2S(=O)(=O)N1Cn1nnn(-c2cccnc2)c1=S [Example 30R] | 2300 |
| Cn1nnc(SCN2C(=O)c3ccccc3S2(=O)=O)n1 [Example 30X] | 550 |
| CC(C)c1cccc2c1C(=O)N(Cn1nnn(-c3cccnc3)c1=S)S2(=O)=O [Example 30Z] | 70000 |
| O=C1c2ccc([N+](=O)[O-])cc2S(=O)(=O)N1CSc1nnnn1-c1ccccc1 [Example 31C] | 3400 |
| O=C1c2ccccc2S(=O)(=O)N1CS(=O)(=O)c1c(Cl)cccc1Cl [Example 32A, 2-(2,6-dichlorophenylsulfonylmethyl)saccharin] | 600 |
| O=C1c2ccccc2S(=O)(=O)N1CSc1nnc(SCCN2CCOCC2)s1 [Example 33, 2-(5-[2-(4-morpholinyl)ethylthio]-1,3,4-thiadiazol-2-ylthiomethyl)saccharin] | 3600 |
| CN(C)CCSc1nnc(SCN2C(=O)c3ccccc3S2(=O)=O)s1 [Example 33B, 2-(5-[2-(N,N-dimethylamino)ethylthio]-1,3,4-thiadiazol-2-ylthiomethyl)saccharin] | 4000 |
| O=C1c2ccccc2S(=O)(=O)N1CSc1nnc(SCCN2CCCCC2)s1 [Example 33C, 2-(5-[2-(1-piperidinyl)ethylthio]-1,3,4-thiadiazol-2-ylthiomethyl) saccharin] | 200 |
| O=C(O)Cn1nnnc1SCN1C(=O)c2ccccc2S1(=O)=O [Example 34, 2-[1-(2-carboxymethyl)-1H-tetrazol-5-ylthiomethyl]saccharin] | 400 |
| O=C(O)CCC(=O)Nc1cccc(-n2nnnc2SCN2C(=O)c3ccccc3S2(=O)=O)c1 [Example 35, 2-[1-(3-succinoylaminophenyl)-1H-tetrazol-5-ylthiomethyl]saccharin] | 3600 |

Same assay, conditions: read-out: 10^-3 x kon

| kinact/KI [M⁻¹ s⁻¹] | Structure (SMILES) |
| --- | --- |
| 4600 | O=C1c2cc([N+](=O)[O-])ccc2S(=O)(=O)N1CSc1nnnn1-c1ccccc1 [Example 11, 5-nitro-2-(1-phenyl-1H-tetrazol-5-ylthiomethyl)saccharin] |
